Experimental data: patent US7417156B2, “Orally active, antimalarial, anticancer, artemisinin-derived trioxane dimers” (Johns Hopkins University, priority 2002, dated 2008)

Assays:
[1] = test system: malaria parasite; assay: Efficacy Study Blood Schizontocidal Activity; type: in vivo; design: ED90: unit not given here
[2] = test system: EKVX; assay: NCI 60 cell line panel screen (SRB); type: cell-based, human
[3] = test system: HOP-62; assay: NCI 60 cell line panel screen (SRB); type: cell-based, human; details: for Log10LC50 / Log10TGI50: HOP-62 (Non-Small Cell Lung Cancer); for Log10LC50: LC50: PG=−50; for Log10TGI50: TGI: PG=0
[4] = test system: COLO 205; assay: NCI 60 cell line panel screen (SRB); type: cell-based, human; details: for Log10LC50 / Log10TGI50: COLO 205 (Colon Cancer); for Log10LC50: LC50: PG=−50; for Log10TGI50: TGI: PG=0; for Log10GI50: Colon Cancer, COLO 205
[5] = test system: HCC-2998; assay: NCI 60 cell line panel screen (SRB); type: cell-based, human; details: for Log10LC50 / Log10TGI50: HCC-2998 (Colon Cancer); for Log10LC50: LC50: PG=−50; for Log10TGI50: TGI: PG=0
[6] = test system: KM12; assay: NCI 60 cell line panel screen (SRB); type: cell-based, human; details: for Log10GI50: Colon Cancer, KM12; for Log10LC50 / Log10TGI50: KM12 (Colon Cancer); for Log10LC50: LC50: PG=−50; for Log10TGI50: TGI: PG=0
[7] = test system: SW-620; assay: NCI 60 cell line panel screen (SRB); type: cell-based, human; details: for Log10GI50: Colon Cancer, SW-620; for Log10LC50 / Log10TGI50: SW-620 (Colon Cancer); for Log10LC50: LC50: PG=−50; for Log10TGI50: TGI: PG=0
[8] = test system: SF-295; assay: NCI 60 cell line panel screen (SRB); type: cell-based, human; details: for Log10GI50: CNS Cancer, SF-295; for Log10LC50 / Log10TGI50: SF-295 (CNS Cancer); for Log10LC50: LC50: PG=−50; for Log10TGI50: TGI: PG=0
[9] = test system: U251; assay: NCI 60 cell line panel screen (SRB); type: cell-based, human; details: for Log10GI50: CNS Cancer, U251; for Log10LC50 / Log10TGI50: U251 (CNS Cancer); for Log10LC50: LC50: PG=−50; for Log10TGI50: TGI: PG=0
[10] = test system: LOX IMVI; assay: NCI 60 cell line panel screen (SRB); type: cell-based, human; details: for Log10LC50 / Log10TGI50: LOX IMVI (Melanoma); for Log10LC50: LC50: PG=−50; for Log10TGI50: TGI: PG=0; for Log10GI50: Melanoma, LOX IMVI
[11] = test system: SK-MEL-5; assay: NCI 60 cell line panel screen (SRB); type: cell-based, human; details: for Log10GI50: Melanoma, SK-MEL-5; for Log10LC50 / Log10TGI50: SK-MEL-5 (Melanoma); for Log10LC50: LC50: PG=−50; for Log10TGI50: TGI: PG=0
[12] = test system: UACC-62; assay: NCI 60 cell line panel screen (SRB); type: cell-based, human; details: for Log10LC50 / Log10TGI50: UACC-62 (Melanoma); for Log10LC50: LC50: PG=−50; for Log10TGI50: TGI: PG=0
[13] = test system: OVCAR-4; assay: NCI 60 cell line panel screen (SRB); type: cell-based, human; details: for Log10LC50 / Log10TGI50: OVCAR-4 (Ovarian Cancer); for Log10LC50: LC50: PG=−50; for Log10TGI50: TGI: PG=0; for Log10GI50: Ovarian Cancer, OVCAR-4
[14] = test system: 786-0; assay: NCI 60 cell line panel screen (SRB); type: cell-based, human; details: for Log10LC50 / Log10TGI50: 786-0 (Renal Cancer); for Log10LC50: LC50: PG=−50; for Log10TGI50: TGI: PG=0; for Log10GI50: Renal Cancer, 786-0
[15] = test system: A498; assay: NCI 60 cell line panel screen (SRB); type: cell-based, human; details: for Log10LC50 / Log10TGI50: A498 (Renal Cancer); for Log10LC50: LC50: PG=−50; for Log10TGI50: TGI: PG=0; for Log10GI50: Renal Cancer, A498
[16] = test system: CAKI-1; assay: NCI 60 cell line panel screen (SRB); type: cell-based, human; details: for Log10LC50 / Log10TGI50: CAKI-1 (Renal Cancer); for Log10LC50: LC50: PG=−50; for Log10TGI50: TGI: PG=0; for Log10GI50: Renal Cancer, CAKI-1
[17] = test system: RXF 393; assay: NCI 60 cell line panel screen (SRB); type: cell-based, human; details: for Log10LC50 / Log10TGI50: RXF 393 (Renal Cancer); for Log10LC50: LC50: PG=−50; for Log10TGI50: TGI: PG=0; for Log10GI50: Renal Cancer, RXF 393
[18] = test system: SN12C; assay: NCI 60 cell line panel screen (SRB); type: cell-based, human; details: for Log10GI50: Renal Cancer, SN12C; for Log10LC50 / Log10TGI50: SN12C (Renal Cancer); for Log10LC50: LC50: PG=−50; for Log10TGI50: TGI: PG=0
[19] = test system: DU-145; assay: NCI 60 cell line panel screen (SRB); type: cell-based, human; details: for Log10TGI50: TGI: PG=0; for Log10GI50: Prostate Cancer, DU-145
[20] = test system: T-47D; assay: NCI 60 cell line panel screen (SRB); type: cell-based, human; details: for Log10GI50: Breast Cancer, T-47D; for Log10LC50 / Log10TGI50: T-47D (Breast Cancer); for Log10LC50: LC50: PG=−50; for Log10TGI50: TGI: PG=0
[21] = test system: HL-60(TB); assay: NCI 60 cell line panel screen (SRB); type: cell-based, human
[22] = test system: NCI-H226; assay: NCI 60 cell line panel screen (SRB); type: cell-based, human

CC1CCC2C(C)C(CC(COC(=O)c3cc[n+]([O-])cc3)CC3OC4OC5(C)CCC6C(C)CCC(C3C)C46OO5)OC3OC4(C)CCC1C32OO4 (stereo not drawn) [Compound 13, bis-trioxane primary alcohol isonicotinate N-oxide]
ED50 ([1]; Route: IV): 0.55 mg/kg
ED90 ([1]; Route: IV): 2.0
ED50 ([1]; Route: PO): 4 mg/kg
ED90 ([1]; Route: PO): 9.0
efficacy relative to sodium artesunate in words ([1]; orally and i.v.): more efficacious
Log10LC50 ([2]; EKVX (Non-Small Cell Lung Cancer), LC50: PG=−50): −4.59 log10M
Log10TGI50 ([2]; EKVX (Non-Small Cell Lung Cancer), TGI: PG=0): −5.08 log10M
Log10GI50 ([2]; Non-Small Cell Lung Cancer, EKVX): −8.19
Log10LC50 [3]: −4.54 log10M
Log10TGI50 [3]: −4.91 log10M
Log10LC50 [4]: >−4.30 log10M
Log10TGI50 [4]: >−4.30 log10M
Log10GI50 [4]: <−8.30
Log10LC50 [5]: −4.55 log10M
Log10TGI50 [5]: −4.91 log10M
Log10GI50 [6]: <−8.30
Log10LC50 [6]: −4.37 log10M
Log10TGI50 [6]: −5.04 log10M
Log10GI50 [7]: <−8.30
Log10LC50 [7]: −4.53 log10M
Log10TGI50 [7]: −5.05 log10M
Log10GI50 [8]: −5.21
Log10LC50 [8]: −4.33 log10M
Log10TGI50 [8]: −4.77 log10M
Log10GI50 [9]: <−8.30
Log10LC50 [9]: −4.69 log10M
Log10TGI50 [9]: −5.08 log10M
Log10LC50 [10]: −5.78 log10M
Log10TGI50 [10]: <−8.30 log10M
Log10GI50 [10]: <−8.30
Log10GI50 [11]: <−8.30
Log10LC50 [11]: −4.73 log10M
Log10TGI50 [11]: −5.28 log10M
Log10GI50 ([12]; Melanoma, UACC-62): −8.00
Log10LC50 [12]: −4.66 log10M
Log10TGI50 [12]: −5.07 log10M
Log10LC50 [13]: −4.42 log10M
Log10TGI50 [13]: −4.93 log10M
Log10GI50 [13]: <−8.30
Log10LC50 [14]: −4.43 log10M
Log10TGI50 [14]: −4.94 log10M
Log10GI50 [14]: −7.81
Log10LC50 [15]: −4.74 log10M
Log10TGI50 [15]: −5.31 log10M
Log10GI50 [15]: −6.97
Log10LC50 [16]: −4.66 log10M
Log10TGI50 [16]: −5.11 log10M
Log10GI50 [16]: −7.36
Log10LC50 [17]: >−4.30 log10M
Log10TGI50 [17]: −4.69 log10M
Log10GI50 [17]: −5.20
Log10GI50 [18]: <−8.30
Log10LC50 [18]: −4.72 log10M
Log10TGI50 [18]: −5.29 log10M
Log10TGI50 ([19]; DU-145 (Prostate Cancer)): −5.00 log10M
Log10GI50 [19]: −7.48
Log10GI50 [20]: <−8.30
Log10LC50 [20]: >−4.30 log10M
Log10TGI50 [20]: −5.36 log10M

CC1CCC2C(C)C(CC(O)(CO)CC3OC4OC5(C)CCC6C(C)CCC(C3C)C46OO5)OC3OC4(C)CCC1C32OO4 (stereo not drawn) [Compound 5, bis-trioxane vicinal diol]
Log10LC50 ([21]; HL-60(TB) (Leukemia), LC50: PG=−50): >−4.00 log10M
Log10GI50 ([21]; Leukemia, HL-60(TB)): <−8.00
Log10LC50 [3]: >−4.00 log10M
Log10TGI50 [3]: −4.26 log10M
Log10GI50 ([3]; Non-Small Cell Lung Cancer, HOP-62): −4.66
Log10LC50 ([22]; NCI-H226 (Non-Small Cell Lung Cancer), LC50: PG=−50): −4.11 log10M
Log10TGI50 ([22]; NCI-H226 (Non-Small Cell Lung Cancer), TGI: PG=0): −4.49 log10M
Log10GI50 ([22]; Non-Small Cell Lung Cancer, NCI-H226): −4.87
Log10LC50 [4]: −4.15 log10M
Log10TGI50 [4]: −4.87 log10M
Log10GI50 [4]: <−8.00
Log10GI50 ([5]; Colon Cancer, HCC-2998): −4.65
Log10LC50 [5]: >−4.00 log10M
Log10TGI50 [5]: −4.23 log10M
Log10GI50 [6]: <−8.00
Log10LC50 [6]: >−4.00 log10M
Log10TGI50 [6]: −4.47 log10M
Log10GI50 [7]: −4.97
Log10LC50 [7]: >−4.00 log10M
Log10TGI50 [7]: >−4.00 log10M
Log10GI50 [8]: −4.94
Log10LC50 [8]: −4.04 log10M
Log10TGI50 [8]: −4.49 log10M
Log10GI50 [9]: −7.68
Log10LC50 [9]: −4.08 log10M
Log10TGI50 [9]: −4.61 log10M
Log10LC50 [10]: −4.44 log10M
Log10TGI50 [10]: −5.47 log10M
Log10GI50 [10]: <−8.00
Log10GI50 [11]: −7.69
Log10LC50 [11]: −4.21 log10M
Log10TGI50 [11]: −4.64 log10M
Log10LC50 [12]: −4.24 log10M
Log10TGI50 [12]: −4.67 log10M
Log10LC50 [13]: −4.12 log10M
Log10TGI50 [13]: −4.55 log10M
Log10GI50 [13]: −4.99
Log10LC50 [14]: >−4.00 log10M
Log10TGI50 [14]: −4.36 log10M
Log10GI50 [14]: −4.87
Log10LC50 [15]: −4.21 log10M
Log10TGI50 [15]: −4.51 log10M
Log10GI50 [15]: −4.81
Log10LC50 [16]: −4.13 log10M
Log10TGI50 [16]: −4.54 log10M
Log10GI50 [16]: −4.94
Log10LC50 [17]: −4.18 log10M
Log10TGI50 [17]: −4.53 log10M
Log10GI50 [17]: −4.89
Log10GI50 [18]: −7.60
Log10LC50 [18]: −4.26 log10M
Log10TGI50 [18]: −4.72 log10M
Log10LC50 ([19]; DU-145 (Prostate Cancer), LC50: PG=−50): −4.13 log10M
Log10TGI50 ([19]; DU-145 (Prostate Cancer)): −4.48 log10M
Log10GI50 [19]: −4.83
Log10GI50 [20]: −7.23
Log10LC50 [20]: >−4.00 log10M
Log10TGI50 [20]: −4.48 log10M
